In publication PMC5053573, “Structure-Based Design of Tetrahydroisoquinoline-7-carboxamides as Selective Discoidin Domain Receptor 1 (DDR1) Inhibitors” (Journal of Medicinal Chemistry, 2016):

What was measured:
Assay in all cases: biochemical
Conditions in all cases: read-out: %Ctrl @ 1000nM
[1] = biological target: CAMK1G (Homo sapiens, UniProt Q96NX5)
[2] = biological target: AURKB (Homo sapiens, UniProt Q96GD4)
[3] = biological target: MYLK2 (Homo sapiens, UniProt Q9H1R3)
[4] = biological target: T1, MST1 (Homo sapiens, UniProt Q13043)
T1 construct: gene STK4

[5] = biological target: ROCK2 (Homo sapiens, UniProt O75116)
[6] = biological target: T2, BRK (Homo sapiens, UniProt Q13882)
T2 construct: gene PTK6

[7] = biological target: CLK3 (Homo sapiens, UniProt P49761)
[8] = biological target: ABL1(M351T)-phosphorylated (Homo sapiens, UniProt P00519, M351T)
[9] = biological target: CDK3 (Homo sapiens, UniProt Q00526)
[10] = biological target: CDKL3 (Homo sapiens, UniProt Q8IVW4)
[11] = biological target: T3, NIM1 (Homo sapiens, UniProt Q8IY84)
T3 construct: gene NIM1K

[12] = biological target: RIPK2 (Homo sapiens, UniProt O43353)
[13] = biological target: TGFBR2 (Homo sapiens, UniProt P37173)
[14] = biological target: DAPK3 (Homo sapiens, UniProt O43293)
[15] = biological target: LATS2 (Homo sapiens, UniProt Q9NRM7)
[16] = biological target: ACVR2A (Homo sapiens, UniProt P27037)
[17] = biological target: T4, DLK (Homo sapiens, UniProt Q12852)
T4 construct: gene MAP3K12

[18] = biological target: CSNK2A2 (Homo sapiens, UniProt P19784)
[19] = biological target: TESK1 (Homo sapiens, UniProt Q15569)
[20] = biological target: ERBB3 (Homo sapiens, UniProt P21860)
[21] = biological target: PIK3CA(C420R) (Homo sapiens, UniProt P42336, C420R)
[22] = biological target: RPS6KA5(Kin.Dom.2-C-terminal) (Homo sapiens, UniProt O75582)
[23] = biological target: ABL2 (Homo sapiens, UniProt P42684)
[24] = biological target: T5, CDC2L2 (Homo sapiens, UniProt Q9UQ88)
T5 construct: gene CDK11A

[25] = biological target: T6, ASK1 (Homo sapiens, UniProt Q99683)
T6 construct: gene MAP3K5

[26] = biological target: NEK10 (Homo sapiens, UniProt Q6ZWH5)
[27] = biological target: T7, TRKA (Homo sapiens, UniProt P04629)
T7 construct: gene NTRK1

[28] = biological target: RIOK3 (Homo sapiens, UniProt O14730)
[29] = biological target: T8, MEK3 (Homo sapiens, UniProt P46734)
T8 construct: gene MAP2K3

[30] = biological target: PIK3CB (Homo sapiens, UniProt P42338)
[31] = biological target: EPHB4 (Homo sapiens, UniProt P54760)
[32] = biological target: PLK2 (Homo sapiens, UniProt Q9NYY3)
[33] = biological target: ABL1(Q252H)-phosphorylated (Homo sapiens, UniProt P00519, Q252H)
[34] = biological target: SLK (Homo sapiens, UniProt Q9H2G2)
[35] = biological target: T9, RSK4(Kin.Dom.1-N-terminal) (Homo sapiens, UniProt Q9UK32)
T9 construct: gene RPS6KA6
T9 sequence (Q9UK32 whole entry): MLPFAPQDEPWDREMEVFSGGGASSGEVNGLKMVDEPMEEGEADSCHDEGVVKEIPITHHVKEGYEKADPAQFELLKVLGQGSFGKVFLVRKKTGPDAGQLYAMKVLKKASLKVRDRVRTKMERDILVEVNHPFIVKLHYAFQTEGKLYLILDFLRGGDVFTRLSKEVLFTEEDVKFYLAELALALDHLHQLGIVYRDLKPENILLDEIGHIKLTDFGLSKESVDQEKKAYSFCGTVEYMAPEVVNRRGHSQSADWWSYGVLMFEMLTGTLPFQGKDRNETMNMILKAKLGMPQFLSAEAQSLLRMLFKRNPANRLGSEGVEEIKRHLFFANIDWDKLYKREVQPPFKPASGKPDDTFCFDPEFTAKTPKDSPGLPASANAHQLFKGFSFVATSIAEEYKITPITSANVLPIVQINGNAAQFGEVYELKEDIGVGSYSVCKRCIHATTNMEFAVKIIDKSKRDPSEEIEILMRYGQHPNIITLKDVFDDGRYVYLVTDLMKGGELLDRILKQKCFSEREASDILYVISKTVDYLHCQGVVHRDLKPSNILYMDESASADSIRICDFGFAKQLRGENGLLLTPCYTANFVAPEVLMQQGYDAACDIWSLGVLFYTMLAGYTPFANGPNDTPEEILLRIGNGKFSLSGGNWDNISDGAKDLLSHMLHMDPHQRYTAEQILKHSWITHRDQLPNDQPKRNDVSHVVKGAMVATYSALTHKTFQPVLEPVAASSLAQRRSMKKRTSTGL

Sequence of AURKB (Q96GD4 whole entry): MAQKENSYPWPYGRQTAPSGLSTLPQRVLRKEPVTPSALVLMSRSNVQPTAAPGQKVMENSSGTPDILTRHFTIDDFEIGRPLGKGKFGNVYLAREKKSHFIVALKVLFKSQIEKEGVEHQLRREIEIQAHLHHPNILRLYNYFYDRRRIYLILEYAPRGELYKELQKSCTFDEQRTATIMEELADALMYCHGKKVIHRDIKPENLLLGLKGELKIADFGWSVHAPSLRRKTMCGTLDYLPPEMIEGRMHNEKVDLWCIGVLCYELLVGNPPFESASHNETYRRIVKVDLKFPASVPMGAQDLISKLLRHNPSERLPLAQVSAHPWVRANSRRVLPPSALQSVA
T2 sequence (Q13882 whole entry): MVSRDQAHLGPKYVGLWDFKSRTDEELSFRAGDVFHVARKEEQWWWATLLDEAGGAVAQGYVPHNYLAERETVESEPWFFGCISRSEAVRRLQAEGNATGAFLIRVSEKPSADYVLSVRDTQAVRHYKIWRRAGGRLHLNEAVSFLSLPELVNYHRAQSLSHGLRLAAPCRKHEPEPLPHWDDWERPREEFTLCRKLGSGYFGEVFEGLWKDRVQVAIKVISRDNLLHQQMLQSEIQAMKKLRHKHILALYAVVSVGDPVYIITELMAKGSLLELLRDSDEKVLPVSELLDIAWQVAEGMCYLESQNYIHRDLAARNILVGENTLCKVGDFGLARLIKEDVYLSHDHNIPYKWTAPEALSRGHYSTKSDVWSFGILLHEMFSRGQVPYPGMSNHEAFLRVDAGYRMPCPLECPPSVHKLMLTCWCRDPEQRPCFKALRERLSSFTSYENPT
Sequence of MYLK2 (Q9H1R3 whole entry): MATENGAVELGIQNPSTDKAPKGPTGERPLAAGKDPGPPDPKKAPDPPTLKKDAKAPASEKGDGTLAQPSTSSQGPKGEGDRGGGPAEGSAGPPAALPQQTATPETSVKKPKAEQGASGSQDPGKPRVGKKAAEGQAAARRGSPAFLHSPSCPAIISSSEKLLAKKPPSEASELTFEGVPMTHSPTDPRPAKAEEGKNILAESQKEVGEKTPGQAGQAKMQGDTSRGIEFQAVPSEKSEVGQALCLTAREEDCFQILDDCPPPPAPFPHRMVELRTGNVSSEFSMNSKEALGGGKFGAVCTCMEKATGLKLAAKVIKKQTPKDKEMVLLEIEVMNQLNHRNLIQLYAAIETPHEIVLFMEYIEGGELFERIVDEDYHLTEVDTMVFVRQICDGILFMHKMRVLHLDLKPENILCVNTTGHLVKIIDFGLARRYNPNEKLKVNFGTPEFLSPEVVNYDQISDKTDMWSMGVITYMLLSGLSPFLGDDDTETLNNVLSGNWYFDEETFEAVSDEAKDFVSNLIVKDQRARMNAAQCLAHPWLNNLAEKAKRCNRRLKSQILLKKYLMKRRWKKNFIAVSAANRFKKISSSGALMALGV
T6 sequence (Q99683 whole entry): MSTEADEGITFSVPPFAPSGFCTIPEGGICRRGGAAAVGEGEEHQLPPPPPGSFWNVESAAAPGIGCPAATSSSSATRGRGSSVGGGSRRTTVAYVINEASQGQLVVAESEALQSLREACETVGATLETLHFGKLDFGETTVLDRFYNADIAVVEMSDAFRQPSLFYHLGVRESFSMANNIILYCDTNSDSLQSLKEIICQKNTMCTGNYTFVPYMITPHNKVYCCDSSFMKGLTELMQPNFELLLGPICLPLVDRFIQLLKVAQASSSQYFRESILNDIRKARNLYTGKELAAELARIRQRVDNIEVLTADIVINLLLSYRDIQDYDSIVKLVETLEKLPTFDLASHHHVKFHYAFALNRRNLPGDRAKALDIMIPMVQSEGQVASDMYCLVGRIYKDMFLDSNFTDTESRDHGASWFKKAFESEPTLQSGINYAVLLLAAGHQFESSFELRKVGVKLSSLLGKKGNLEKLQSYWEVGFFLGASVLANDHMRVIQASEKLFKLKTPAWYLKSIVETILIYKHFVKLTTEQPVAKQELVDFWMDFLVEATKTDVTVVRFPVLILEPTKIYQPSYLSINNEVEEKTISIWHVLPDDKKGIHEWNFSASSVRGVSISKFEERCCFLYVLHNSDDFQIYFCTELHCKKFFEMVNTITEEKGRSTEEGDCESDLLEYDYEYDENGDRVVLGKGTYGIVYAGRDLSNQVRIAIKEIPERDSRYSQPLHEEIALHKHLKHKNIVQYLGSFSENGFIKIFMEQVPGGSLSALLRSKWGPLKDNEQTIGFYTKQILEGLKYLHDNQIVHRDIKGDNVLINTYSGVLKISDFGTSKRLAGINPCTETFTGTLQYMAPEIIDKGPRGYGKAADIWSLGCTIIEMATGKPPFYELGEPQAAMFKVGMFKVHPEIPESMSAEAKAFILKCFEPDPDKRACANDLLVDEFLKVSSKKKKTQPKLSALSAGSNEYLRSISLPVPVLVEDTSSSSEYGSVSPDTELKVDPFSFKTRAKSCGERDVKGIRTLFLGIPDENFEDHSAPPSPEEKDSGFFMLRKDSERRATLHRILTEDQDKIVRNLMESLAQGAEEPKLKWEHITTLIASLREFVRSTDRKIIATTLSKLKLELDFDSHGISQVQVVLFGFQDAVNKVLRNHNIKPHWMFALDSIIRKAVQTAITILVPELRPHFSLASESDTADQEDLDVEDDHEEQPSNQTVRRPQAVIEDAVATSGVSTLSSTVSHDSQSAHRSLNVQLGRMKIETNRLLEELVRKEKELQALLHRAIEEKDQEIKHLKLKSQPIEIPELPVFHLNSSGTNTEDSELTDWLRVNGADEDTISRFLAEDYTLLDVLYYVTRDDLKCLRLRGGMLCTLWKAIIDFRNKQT
Sequence of CLK3 (P49761 whole entry): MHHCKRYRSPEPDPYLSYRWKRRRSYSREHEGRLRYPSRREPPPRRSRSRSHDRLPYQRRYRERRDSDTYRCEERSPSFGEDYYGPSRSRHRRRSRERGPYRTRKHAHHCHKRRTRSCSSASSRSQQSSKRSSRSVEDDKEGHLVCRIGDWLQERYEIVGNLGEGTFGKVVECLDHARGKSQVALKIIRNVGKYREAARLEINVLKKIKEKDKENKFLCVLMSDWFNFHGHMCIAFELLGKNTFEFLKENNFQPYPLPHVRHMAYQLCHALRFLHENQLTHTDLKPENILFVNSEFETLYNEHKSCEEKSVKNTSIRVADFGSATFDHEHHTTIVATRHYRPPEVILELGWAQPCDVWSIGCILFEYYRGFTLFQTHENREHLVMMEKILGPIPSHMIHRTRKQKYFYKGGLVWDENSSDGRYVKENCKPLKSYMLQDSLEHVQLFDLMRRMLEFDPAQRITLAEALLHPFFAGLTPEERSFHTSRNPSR
T3 sequence (Q8IY84 whole entry): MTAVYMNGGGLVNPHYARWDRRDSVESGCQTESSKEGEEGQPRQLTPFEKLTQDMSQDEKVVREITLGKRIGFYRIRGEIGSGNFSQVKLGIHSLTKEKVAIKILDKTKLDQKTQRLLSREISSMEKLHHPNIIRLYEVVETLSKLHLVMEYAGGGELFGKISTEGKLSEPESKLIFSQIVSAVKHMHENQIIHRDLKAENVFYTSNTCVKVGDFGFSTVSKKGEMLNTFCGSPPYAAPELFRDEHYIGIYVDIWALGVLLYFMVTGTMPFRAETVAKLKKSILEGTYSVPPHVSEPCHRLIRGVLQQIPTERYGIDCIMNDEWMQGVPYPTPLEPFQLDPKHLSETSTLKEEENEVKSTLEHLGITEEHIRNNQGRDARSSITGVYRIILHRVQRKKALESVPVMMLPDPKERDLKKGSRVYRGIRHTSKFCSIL
Sequence of CSNK2A2 (P19784 whole entry): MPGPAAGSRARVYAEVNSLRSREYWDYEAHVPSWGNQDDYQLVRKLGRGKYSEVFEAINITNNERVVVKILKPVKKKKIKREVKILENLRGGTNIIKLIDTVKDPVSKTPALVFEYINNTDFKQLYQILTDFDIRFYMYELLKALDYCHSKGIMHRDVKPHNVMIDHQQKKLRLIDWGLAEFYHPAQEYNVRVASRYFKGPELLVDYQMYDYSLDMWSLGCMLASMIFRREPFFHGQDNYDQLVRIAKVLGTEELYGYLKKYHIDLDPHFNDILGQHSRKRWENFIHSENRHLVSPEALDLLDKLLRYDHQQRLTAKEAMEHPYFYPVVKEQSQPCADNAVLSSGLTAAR

Cc1cn(-c2cc(NC(=O)c3ccc4c(c3)CN(c3cncnc3)C[C@@H]4C)cc(C(F)(F)F)c2)cn1 [Compound 6j]
remaining activity at 1 µM [1]: 84% | remaining activity at 1 µM [2]: 98% | remaining activity at 1 µM [3]: 100% | remaining activity at 1 µM [4]: 85% | remaining activity at 1 µM [5]: 96% | remaining activity at 1 µM [6]: 84% | remaining activity at 1 µM [7]: 95% | remaining activity at 1 µM [8]: 72% | remaining activity at 1 µM [9]: 97% | remaining activity at 1 µM [10]: 100% | remaining activity at 1 µM [11]: 100% | remaining activity at 1 µM [12]: 80% | remaining activity at 1 µM [13]: 94% | remaining activity at 1 µM [14]: 69% | remaining activity at 1 µM [15]: 100% | remaining activity at 1 µM [16]: 98% | remaining activity at 1 µM [17]: 100% | remaining activity at 1 µM [18]: 93% | remaining activity at 1 µM [19]: 98% | remaining activity at 1 µM [20]: 100% | remaining activity at 1 µM [21]: 97% | remaining activity at 1 µM [22]: 100% | remaining activity at 1 µM [23]: 46% | remaining activity at 1 µM [24]: 97% | remaining activity at 1 µM [25]: 92% | remaining activity at 1 µM [26]: 100% | remaining activity at 1 µM [27]: 3.2% | remaining activity at 1 µM [28]: 100% | remaining activity at 1 µM [29]: 100% | remaining activity at 1 µM [30]: 100% | remaining activity at 1 µM [31]: 76% | remaining activity at 1 µM [32]: 100% | remaining activity at 1 µM [33]: 95% | remaining activity at 1 µM [34]: 71% | remaining activity at 1 µM [35]: 100%
